This is an account of results in patent US7803377B2, “Anti-DLL4 antibodies and methods using same” (Genentech, Inc., priority 2006, dated 2010).

The subject of one data set is VEGFR2. The experiment in a line: Real-time quantitative RT-PCR of VEGFR2 expression in HUVECs. Format: cell-based, human. The settings on record: 3-D fibrin gel culture of HUVECs (7 d); anti-DLL4 antibody 5 μg/ml, DBZ 0.08 μM. The method, then:
RNA extraction and Real-time quantitative RT-PCR. Extraction of total RNA from HUVECs in 2-D culture was done using RNeasy® Mini Kit (Qiagen) as per instructions of the manufacturer. To extract total RNA from HUVECs growing in fibrin gels, fibrin gels were treated with 10× trypsin-EDTA (Gibco) for 5 min to remove the top layer fibroblasts, followed by neutralization with 10% FBS in PBS. The gel clots were then removed from tissue culture wells and subjected to centrifugation (10K for 5 min) in microtubes to remove excessive fluid. The resulting gel “pellets” were lysed with lysis buffer (RNeasy® Mini Kit), and further processed as with HUVECs in 2-D culture. The quality of RNA was assessed using RNA 6000 Nano Chips and the Agilent 2100 Bioanalyzer (Agilent Technologies). Real-time quantitative RT-PCR reactions were done in triplicate using 7500 Real Time PCR System (Applied Biosystems). Human GAPDH was used as reference gene for normalization. The expression levels are expressed as the mean (±SEM) fold mRNA changes relative to control from 3 separate determinations. The forward and reverse primer and probe sequences for VEGFR2, TGFβ2 and GAPDH were as follows.
Therefore, while VEGF can act upstream of DLL4/Notch pathway, DLL4/Notch is capable of fine-tuning the response through negatively regulating VEGFR2 expression.

For data set [1], the system named is human lung carcinoma MV-522 cells. The experiment in a line: Tumor model MV-522. The class given is in vivo, mouse. The note with it: treatment initiated at ≧250 mm^3. The method, then:
(§1) Tumor models. Beige nude female mice of 8- to 10-week-old were used. To obtain subcutaneous tumors, mice were injected with 0.1 ml cell suspension containing 50% matrigel (BD Bioscience) into the right posterior flank. 5×10^6 human colon cancer HM7 cells, 10×10^6 human colon carcinoma Colo205 cells, 10×10^6 human lung carcinoma Calu6 cells, 10×10^6 human lung carcinoma MV-522 cells, 10×10^6 mouse leukemia WEHI-3 cells, 10×10^6 mouse lymphoma EL4 cells, 10×10^6 human ovarian cancer SK-OV-3 X1 cells, 10×06 mouse lung cancer LL2 cells, 10×10^6 leukemia/lymphoma EL4 cells, or 10×10^6 non-small lung cancer H1299 cells were injected into each mouse. For human melanoma MDA-MB-435 model, mice were injected into the mammary fat pad with 0.1 ml cell (5×10^6) suspension containing 50% matrigel. […] For the following tumor models, each test mouse received a subcutaneous tumor fragment (1 mm^3) implanted in the right flank: non-small lung cancer SKMES-1, human breast cancer MX-1, human colorectal cancer SW620 and human adenocarcinoma LS174T. The tumor growth was quantitated by caliper measurements. Tumor volume (mm^3) was determined by measuring the length (l) and width (w) and calculating the volume (V=lw2/2). 10 to 15 animals were included in each group. Statistical comparison of treatment groups was performed using two-tailed Student's t-test. […]

The test system of data set [2] is mouse lung cancer LL2 cells. The experiment in a line: Tumor model LL2. The class given is in vivo. The note with it: 5 mg/kg, IP, twice weekly after establishment of the tumors. The method, then: as §1
For another data set, the system named is mouse lymphoma EL4 cells. The experiment in a line: Tumor model EL4. The class given is in vivo. The settings on record: 5 mg/kg, IP, twice weekly after establishment of the tumors. The method, then:
as §1

A further data set has as its system EL4 mouse lymphoma tumor. The experiment in a line: Tumor vascular labeling and immunohistochemistry (EL4 tumors). Format: in vivo. Here is the method:
Tumor vascular labeling and immunohistochemistry. Mice were anesthetized with Isoflurane. FITC-labeled Lycopersicon esculentum Lectin (150 μg in 150 μl of 0.9% NaCl; Vector Laboratories) was injected i.v. and allowed to circulate for 5 min before systemic perfusion. The vasculature was perfused transcardially with 1% PFA in PBS for 3 min. Tumors were removed and post fixed by immersion in the same fixative for 2 hr, followed by an incubation in 30% sucrose overnight for cryoprotection, then embedded in OCT. Sections (4 μm thickness) were stained with anti-mouse CD31 (1:50, BD Pharmingen), followed by Alexa 594 goat anti-rat IgG (1:800, Molecular Probes).
In light of the tumor growth inhibition, we used the EL4 mouse lymphoma tumor model for vascular histology studies.
Since in vitro blocking of DLL4/Notch pathway impaired the formation of lumen-like structure by ECs (FIG. 8a), it was investigated whether treatment with anti-DLL4 Mab caused similar defect in the tumor vasculature and affected efficient blood flow. […] Given the critical role of DLL4/Notch signaling in AV differentiation, both in embryos and early postnatal retinas, anti-DLL4 Mab could impact cell fate specification of tumor ECs and cause defective directional blood flow. […] Further studies utilizing vascular imaging techniques are needed to gain insights into the precise vascular defects.

A further data set deals with small intestines. The experiment in a line: Histology and immunohistochemistry of mouse intestines. The class given is in vivo. The note with it: anti-DLL4 antibody 10 mg/kg, twice weekly for 6 weeks. Here is the method:
FIG. 10: DLL4/Notch was dispensable in the homeostasis of mouse intestine. Immunohistochemical studies of small intestines from control (a, d, g, j), anti-DLL4 antibody (10 mg/kg, twice weekly for 6 weeks) (b, e, h, k), and DBZ treated (30 μmol/kg daily for 5 days) (c, f, i, l) mice.
Histology and immunohistochemistry of mouse intestines. Formalin-fixed and paraffin-embedded mouse small intestine tissues were sectioned at 3 μm thickness. Histochemical identification of intestinal cell types was performed with Alcian blue as recommended by the manufacturer (PolyScientific). For anti-Ki67 staining, sections were pretreated with Target Retrieval Solution (S1700, DAKO), and incubated with rabbit anti-Ki67 (1:200, clone SP6, Neomarkers). Secondary goat anti-rabbit at 7.5 µg/ml (Vector labs) was detected with the Vectastain ABC Elite Kit (Vector labs). All Ki67 stained sections were counterstained with Mayer's hematoxylin. For HES-1 staining, anti-rat HES-1 (clone NM1, MBL, International), followed by TSA-HRP, was used.
A major concern about global inhibition of Notch is that it may be deleterious, given the pleiotropic roles of Notch signaling in regulating the homeostasis of postnatal self-renewal systems. For instance, Notch signaling is required to maintain undifferentiated crypt progenitor cells in intestines (van Es, J. H. et al. Nature 435, 959-63 (2005); Fre, S. et al. Nature 435, 964-8 (2005)). Indeed, γ-secretase inhibitors, which would indiscriminately block all Notch activities, cause unwanted side effects in rodents duo to a massive increase in goblet cells within the crypt compartment (Milano, J. et al. Toxicol Sci 82, 341-58 (2004); Wong, G. T. et al. J Biol Chem 279, 12876-82 (2004)). We examined the small intestines of mice treated with anti-DLL4 Mab by immunohistochemistry analyses.

The nature of data set [3]: Tolerability in tumor-bearing mice. The class given is in vivo, mouse. The note with it: 10 mg/kg twice per week for up to 8 weeks. From the text:
Thus, DLL4/Notch signaling is critical during active angiogenesis, but plays a less important role in normal vessel maintenance.

For the substance “YW26.82: affinity matured anti-DLL4 monoclonal antibody; HVR-H1/H2/H3 SEQ ID NO:1, 8, 9; HVR-L1/L2/L3 SEQ ID NO:10, 11, 18”, in the data set on VEGFR2, the “VEGFR2 expression on Notch blockade” value is “upregulation of VEGFR2”. In addition, the “tumor growth, single agent” value was “inhibited tumor growth” in data set [1], “inhibited tumor growth alone” in data set [2] and “inhibited tumor growth alone” in the data set with mouse lymphoma EL4 cells. Moreover, the “tumor growth, combination of YW26.82 and anti-VEGF” value in data set [1] (combination with anti-VEGF) is “most effective”. The “endothelial cell density (anti-CD31) in tumor sections” value with EL4 mouse lymphoma tumor (EL4 tumors) is recorded as “dramatic increase in endothelial cell density”. The “FITC-lectin labeling of tumor vessels (vascular perfusion)” value with EL4 mouse lymphoma tumor (systemic perfusion with FITC-lectin, EL4 tumor sections) was “marked reduction of lectin labeling of tumor vessels”. In addition, the “epithelial crypt cell differentiation or proliferation in small intestine” value is “entirely absent” in the data set with small intestines and “no differences in epithelial crypt cell differentiation or proliferation profiles” with small intestines (listed as anti-DLL4 Mab). Moreover, the “expression of Notch target gene HES-1 in transit amplifying (TA) population” value in the data set on small intestines was “did not alter the expression of the Notch target gene HES-1”. For the same substance, the “weight loss or animal death” value in data set [3] is recorded as “no apparent weight loss or animal death”.
